According to ChEMBL document CHEMBL5463727, “Data for DCP probe SGK3-PROTAC1” (2023):

How the values were obtained:
[1] = molecular target: Ribosomal protein S6 kinase beta-1 (Homo sapiens, UniProt P23443); test: RPS6KB1 degradation assay; type: functional
[2] = molecular target: T1, Serine/threonine-protein kinase Sgk1 (Homo sapiens) (UniProt O00141); test: SGK1 degradation assay; type: functional
T1 sequence (whole entry): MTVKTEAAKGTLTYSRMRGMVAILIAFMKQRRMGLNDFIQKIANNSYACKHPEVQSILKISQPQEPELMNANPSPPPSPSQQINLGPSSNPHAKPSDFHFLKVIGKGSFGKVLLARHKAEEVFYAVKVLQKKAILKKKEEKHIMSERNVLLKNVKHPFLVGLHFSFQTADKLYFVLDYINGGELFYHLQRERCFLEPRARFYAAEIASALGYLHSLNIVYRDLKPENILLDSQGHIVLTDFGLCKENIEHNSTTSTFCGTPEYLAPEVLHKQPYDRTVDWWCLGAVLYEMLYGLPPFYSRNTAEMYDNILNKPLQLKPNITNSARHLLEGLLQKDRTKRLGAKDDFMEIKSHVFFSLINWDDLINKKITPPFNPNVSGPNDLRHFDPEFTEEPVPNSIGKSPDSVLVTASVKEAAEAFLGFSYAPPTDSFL

[3] = molecular target: Aurora kinase A (Homo sapiens) (UniProt O14965); test: % Activity remaining of Aurora A in the Dundee kinase panel at 1.0 µM; conditions: Compound concentration 1.0 uM
[4] = molecular target: Aurora kinase B (Homo sapiens) (UniProt Q96GD4); test: % Activity remaining of Aurora B in the Dundee kinase panel at 1.0 µM; conditions: Compound concentration 1.0 uM
[5] = molecular target: Protein-tyrosine kinase 6 (Homo sapiens) (UniProt Q13882); test: % Activity remaining of BRK in the Dundee kinase panel at 1.0 µM; conditions: Compound concentration 1.0 uM
Chain of Protein-tyrosine kinase 6 (Homo sapiens) (Q13882 whole entry, looked up): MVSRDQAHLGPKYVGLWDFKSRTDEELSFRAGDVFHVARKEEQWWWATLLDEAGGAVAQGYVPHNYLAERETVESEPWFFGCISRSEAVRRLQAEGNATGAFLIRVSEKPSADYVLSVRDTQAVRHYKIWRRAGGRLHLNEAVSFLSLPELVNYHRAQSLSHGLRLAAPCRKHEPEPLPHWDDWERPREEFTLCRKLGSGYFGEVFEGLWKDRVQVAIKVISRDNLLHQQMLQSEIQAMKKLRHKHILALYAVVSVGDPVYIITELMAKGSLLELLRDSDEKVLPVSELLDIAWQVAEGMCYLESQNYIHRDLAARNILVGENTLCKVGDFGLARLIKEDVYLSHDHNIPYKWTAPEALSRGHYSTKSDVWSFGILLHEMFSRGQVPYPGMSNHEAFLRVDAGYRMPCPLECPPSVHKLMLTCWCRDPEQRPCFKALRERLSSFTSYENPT

[6] = molecular target: CDK9/cyclin T1 (Homo sapiens) (UniProt O60563+P50750); test: % Activity remaining of CDK9-Cyclin T1 in the Dundee kinase panel at 1.0 µM; type: protein-complex assay; conditions: Compound concentration 1.0 uM
[7] = molecular target: Dual specificity tyrosine-phosphorylation-regulated kinase 3 (Homo sapiens) (UniProt O43781); test: % Activity remaining of DYRK3 in the Dundee kinase panel at 1.0 µM; conditions: Compound concentration 1.0 uM
[8] = molecular target: Eukaryotic elongation factor 2 kinase (Homo sapiens) (UniProt O00418); test: % Activity remaining of EF2K in the Dundee kinase panel at 1.0 µM; conditions: Compound concentration 1.0 uM
[9] = molecular target: Mitogen-activated protein kinase 1 (Homo sapiens) (UniProt P28482); test: % Activity remaining of ERK2 in the Dundee kinase panel at 1.0 µM; conditions: Compound concentration 1.0 uM
[10] = molecular target: Mitogen-activated protein kinase 15 (Homo sapiens) (UniProt Q8TD08); test: % Activity remaining of ERK8 in the Dundee kinase panel at 1.0 µM; conditions: Compound concentration 1.0 uM
Chain of Mitogen-activated protein kinase 15 (Homo sapiens) (Q8TD08 whole entry): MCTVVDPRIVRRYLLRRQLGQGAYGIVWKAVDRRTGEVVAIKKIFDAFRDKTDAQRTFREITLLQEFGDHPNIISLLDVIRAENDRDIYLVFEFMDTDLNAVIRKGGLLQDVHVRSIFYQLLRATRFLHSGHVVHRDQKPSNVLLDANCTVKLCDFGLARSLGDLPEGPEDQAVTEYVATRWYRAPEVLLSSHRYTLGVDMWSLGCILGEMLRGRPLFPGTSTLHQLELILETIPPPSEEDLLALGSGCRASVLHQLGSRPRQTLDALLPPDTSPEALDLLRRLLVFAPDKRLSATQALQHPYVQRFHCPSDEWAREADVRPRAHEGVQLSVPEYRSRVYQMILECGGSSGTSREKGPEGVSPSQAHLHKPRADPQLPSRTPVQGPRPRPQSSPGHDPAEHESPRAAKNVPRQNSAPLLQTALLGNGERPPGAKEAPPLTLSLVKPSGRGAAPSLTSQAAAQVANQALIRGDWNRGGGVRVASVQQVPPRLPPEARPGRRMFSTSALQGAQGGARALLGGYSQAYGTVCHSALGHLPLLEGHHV

[11] = molecular target: Interleukin-1 receptor-associated kinase 1 (Homo sapiens) (UniProt P51617); test: % Activity remaining of IRAK1 in the Dundee kinase panel at 1.0 µM; conditions: Compound concentration 1.0 uM
Chain of Interleukin-1 receptor-associated kinase 1 (Homo sapiens) (P51617 whole entry, looked up): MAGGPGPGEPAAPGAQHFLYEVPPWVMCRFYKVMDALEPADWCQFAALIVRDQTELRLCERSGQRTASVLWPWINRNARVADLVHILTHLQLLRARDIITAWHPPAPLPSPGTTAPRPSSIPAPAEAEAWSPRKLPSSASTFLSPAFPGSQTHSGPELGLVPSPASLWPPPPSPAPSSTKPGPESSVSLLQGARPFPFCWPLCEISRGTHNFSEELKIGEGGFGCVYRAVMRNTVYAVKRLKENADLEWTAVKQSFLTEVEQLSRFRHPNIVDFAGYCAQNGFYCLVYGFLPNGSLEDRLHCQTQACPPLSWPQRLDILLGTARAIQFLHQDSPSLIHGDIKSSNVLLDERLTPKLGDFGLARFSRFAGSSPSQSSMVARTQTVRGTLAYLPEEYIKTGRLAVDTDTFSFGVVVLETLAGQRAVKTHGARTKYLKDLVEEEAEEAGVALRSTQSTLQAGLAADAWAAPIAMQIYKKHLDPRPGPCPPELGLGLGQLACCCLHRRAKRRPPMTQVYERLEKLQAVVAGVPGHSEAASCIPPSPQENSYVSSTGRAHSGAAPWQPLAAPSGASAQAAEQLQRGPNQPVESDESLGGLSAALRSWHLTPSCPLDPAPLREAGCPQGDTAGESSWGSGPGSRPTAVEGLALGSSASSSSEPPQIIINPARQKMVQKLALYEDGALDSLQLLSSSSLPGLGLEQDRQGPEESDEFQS

[12] = molecular target: Serine/threonine-protein kinase STK11 (Homo sapiens) (UniProt Q15831); test: % Activity remaining of LKB1 in the Dundee kinase panel at 1.0 µM; conditions: Compound concentration 1.0 uM
[13] = molecular target: Mitogen-activated protein kinase kinase kinase kinase 3 (Homo sapiens) (UniProt Q8IVH8); test: % Activity remaining of MAP4K3 in the Dundee kinase panel at 1.0 µM; conditions: Compound concentration 1.0 uM
Chain of Mitogen-activated protein kinase kinase kinase kinase 3 (Homo sapiens) (Q8IVH8 whole entry): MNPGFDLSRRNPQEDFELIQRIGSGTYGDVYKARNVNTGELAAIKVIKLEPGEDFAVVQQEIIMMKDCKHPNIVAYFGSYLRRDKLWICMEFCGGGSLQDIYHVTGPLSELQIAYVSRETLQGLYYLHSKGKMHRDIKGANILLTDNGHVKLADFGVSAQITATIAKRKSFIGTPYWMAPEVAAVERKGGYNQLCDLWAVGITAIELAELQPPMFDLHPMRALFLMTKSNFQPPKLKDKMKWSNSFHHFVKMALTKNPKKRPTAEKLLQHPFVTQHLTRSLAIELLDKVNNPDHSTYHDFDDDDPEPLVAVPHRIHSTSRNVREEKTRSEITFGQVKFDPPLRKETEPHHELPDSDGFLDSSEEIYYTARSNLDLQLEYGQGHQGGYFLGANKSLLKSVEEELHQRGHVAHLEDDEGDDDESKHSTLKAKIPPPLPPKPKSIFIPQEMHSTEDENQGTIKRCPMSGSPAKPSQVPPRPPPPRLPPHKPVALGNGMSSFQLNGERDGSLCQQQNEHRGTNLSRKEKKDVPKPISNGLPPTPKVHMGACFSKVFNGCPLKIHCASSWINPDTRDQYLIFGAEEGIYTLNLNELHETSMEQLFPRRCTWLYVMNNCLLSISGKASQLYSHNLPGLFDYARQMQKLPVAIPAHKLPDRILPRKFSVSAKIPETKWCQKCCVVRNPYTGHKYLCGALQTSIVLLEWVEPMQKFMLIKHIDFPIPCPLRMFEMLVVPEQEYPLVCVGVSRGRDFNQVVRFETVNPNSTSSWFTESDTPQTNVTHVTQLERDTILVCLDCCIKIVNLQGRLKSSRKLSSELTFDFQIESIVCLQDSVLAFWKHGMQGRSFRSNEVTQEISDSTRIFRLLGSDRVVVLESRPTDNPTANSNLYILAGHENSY

[14] = molecular target: Maternal embryonic leucine zipper kinase (Homo sapiens) (UniProt Q14680); test: % Activity remaining of MELK in the Dundee kinase panel at 1.0 µM; conditions: Compound concentration 1.0 uM
Chain of Maternal embryonic leucine zipper kinase (Homo sapiens) (Q14680 whole entry, looked up): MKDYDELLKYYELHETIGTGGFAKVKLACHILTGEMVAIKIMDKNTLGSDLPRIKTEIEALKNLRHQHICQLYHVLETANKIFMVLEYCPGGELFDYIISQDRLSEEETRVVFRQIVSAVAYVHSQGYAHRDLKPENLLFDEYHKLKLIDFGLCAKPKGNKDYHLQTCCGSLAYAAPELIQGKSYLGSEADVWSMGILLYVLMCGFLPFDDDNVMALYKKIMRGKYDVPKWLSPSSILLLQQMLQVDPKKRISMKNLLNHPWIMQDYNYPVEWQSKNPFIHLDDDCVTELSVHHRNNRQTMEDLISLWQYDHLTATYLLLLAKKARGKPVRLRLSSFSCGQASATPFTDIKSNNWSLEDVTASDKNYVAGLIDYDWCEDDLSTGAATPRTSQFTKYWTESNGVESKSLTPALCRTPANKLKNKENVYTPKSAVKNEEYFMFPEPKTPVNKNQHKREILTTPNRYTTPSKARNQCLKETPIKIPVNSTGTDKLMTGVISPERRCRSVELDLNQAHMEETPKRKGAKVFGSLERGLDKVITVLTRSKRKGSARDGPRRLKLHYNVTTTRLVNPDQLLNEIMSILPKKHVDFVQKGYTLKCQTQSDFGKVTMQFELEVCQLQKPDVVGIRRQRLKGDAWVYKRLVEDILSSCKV

[15] = molecular target: Dual specificity mitogen-activated protein kinase kinase 1 (Homo sapiens) (UniProt Q02750); test: % Activity remaining of MKK1 in the Dundee kinase panel at 1.0 µM; conditions: Compound concentration 1.0 uM
[16] = molecular target: Serine/threonine-protein kinase Nek6 (Homo sapiens) (UniProt Q9HC98); test: % Activity remaining of NEK6 in the Dundee kinase panel at 1.0 µM; conditions: Compound concentration 1.0 uM
[17] = molecular target: Serine/threonine-protein kinase OSR1 (Homo sapiens) (UniProt O95747); test: % Activity remaining of OSR1 in the Dundee kinase panel at 1.0 µM; conditions: Compound concentration 1.0 uM
[18] = molecular target: Mitogen-activated protein kinase 14 (Homo sapiens) (UniProt Q16539); test: % Activity remaining of p38 alpha MAPK in the Dundee kinase panel at 1.0 µM; conditions: Compound concentration 1.0 uM
[19] = molecular target: Serine/threonine-protein kinase PAK 4 (Homo sapiens) (UniProt O96013); test: % Activity remaining of PAK4 in the Dundee kinase panel at 1.0 µM; conditions: Compound concentration 1.0 uM
[20] = molecular target: Serine/threonine-protein kinase PAK 5 (Homo sapiens) (UniProt Q9P286); test: % Activity remaining of PAK5 in the Dundee kinase panel at 1.0 µM; conditions: Compound concentration 1.0 uM
[21] = molecular target: cAMP-dependent protein kinase catalytic subunit alpha (Homo sapiens) (UniProt P17612); test: % Activity remaining of PKA in the Dundee kinase panel at 1.0 µM; conditions: Compound concentration 1.0 uM
[22] = molecular target: RAC-beta serine/threonine-protein kinase (Homo sapiens) (UniProt P31751); test: % Activity remaining of PKB beta in the Dundee kinase panel at 1.0 µM; conditions: Compound concentration 1.0 uM
[23] = molecular target: Serine/threonine-protein kinase PLK1 (Homo sapiens) (UniProt P53350); test: % Activity remaining of PLK1 in the Dundee kinase panel at 1.0 µM; conditions: Compound concentration 1.0 uM
[24] = molecular target: Receptor-interacting serine/threonine-protein kinase 2 (Homo sapiens) (UniProt O43353); test: % Activity remaining of RIPK2 in the Dundee kinase panel at 1.0 µM; conditions: Compound concentration 1.0 uM
[25] = molecular target: Rho-associated protein kinase 2 (Homo sapiens) (UniProt O75116); test: % Activity remaining of ROCK 2 in the Dundee kinase panel at 1.0 µM; conditions: Compound concentration 1.0 uM
[26] = molecular target: Ribosomal protein S6 kinase alpha-1 (Homo sapiens) (UniProt Q15418); test: % Activity remaining of RSK1 in the Dundee kinase panel at 1.0 µM; conditions: Compound concentration 1.0 uM
[27] = molecular target: Myosin light chain kinase, smooth muscle (Homo sapiens) (UniProt Q15746); test: % Activity remaining of SmMLCK in the Dundee kinase panel at 1.0 µM; conditions: Compound concentration 1.0 uM
[28] = molecular target: Proto-oncogene tyrosine-protein kinase Src (Homo sapiens) (UniProt P12931); test: % Activity remaining of Src in the Dundee kinase panel at 1.0 µM; conditions: Compound concentration 1.0 uM
Chain of Proto-oncogene tyrosine-protein kinase Src (Homo sapiens) (P12931 2-536 limits assumed): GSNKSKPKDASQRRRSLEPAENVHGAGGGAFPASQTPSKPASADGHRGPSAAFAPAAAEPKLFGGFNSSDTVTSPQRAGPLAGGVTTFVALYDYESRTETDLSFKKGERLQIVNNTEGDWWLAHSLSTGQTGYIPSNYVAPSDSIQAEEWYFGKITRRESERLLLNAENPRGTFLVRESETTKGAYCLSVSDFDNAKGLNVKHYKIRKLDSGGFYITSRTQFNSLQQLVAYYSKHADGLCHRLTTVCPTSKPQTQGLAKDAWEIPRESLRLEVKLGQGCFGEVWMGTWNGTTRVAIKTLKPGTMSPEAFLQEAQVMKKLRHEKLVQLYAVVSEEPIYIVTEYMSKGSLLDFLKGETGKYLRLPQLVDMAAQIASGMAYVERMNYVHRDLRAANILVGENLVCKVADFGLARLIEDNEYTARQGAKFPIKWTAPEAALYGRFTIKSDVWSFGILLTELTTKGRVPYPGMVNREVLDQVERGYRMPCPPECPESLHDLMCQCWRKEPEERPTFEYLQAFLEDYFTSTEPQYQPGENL

[29] = molecular target: Dual specificity protein kinase TTK (Homo sapiens) (UniProt P33981); test: % Activity remaining of TTK in the Dundee kinase panel at 1.0 µM; conditions: Compound concentration 1.0 uM
[30] = molecular target: Serine/threonine-protein kinase ULK1 (Homo sapiens) (UniProt O75385); test: % Activity remaining of ULK1 in the Dundee kinase panel at 1.0 µM; conditions: Compound concentration 1.0 uM
Chain of Serine/threonine-protein kinase ULK1 (Homo sapiens) (O75385 whole entry): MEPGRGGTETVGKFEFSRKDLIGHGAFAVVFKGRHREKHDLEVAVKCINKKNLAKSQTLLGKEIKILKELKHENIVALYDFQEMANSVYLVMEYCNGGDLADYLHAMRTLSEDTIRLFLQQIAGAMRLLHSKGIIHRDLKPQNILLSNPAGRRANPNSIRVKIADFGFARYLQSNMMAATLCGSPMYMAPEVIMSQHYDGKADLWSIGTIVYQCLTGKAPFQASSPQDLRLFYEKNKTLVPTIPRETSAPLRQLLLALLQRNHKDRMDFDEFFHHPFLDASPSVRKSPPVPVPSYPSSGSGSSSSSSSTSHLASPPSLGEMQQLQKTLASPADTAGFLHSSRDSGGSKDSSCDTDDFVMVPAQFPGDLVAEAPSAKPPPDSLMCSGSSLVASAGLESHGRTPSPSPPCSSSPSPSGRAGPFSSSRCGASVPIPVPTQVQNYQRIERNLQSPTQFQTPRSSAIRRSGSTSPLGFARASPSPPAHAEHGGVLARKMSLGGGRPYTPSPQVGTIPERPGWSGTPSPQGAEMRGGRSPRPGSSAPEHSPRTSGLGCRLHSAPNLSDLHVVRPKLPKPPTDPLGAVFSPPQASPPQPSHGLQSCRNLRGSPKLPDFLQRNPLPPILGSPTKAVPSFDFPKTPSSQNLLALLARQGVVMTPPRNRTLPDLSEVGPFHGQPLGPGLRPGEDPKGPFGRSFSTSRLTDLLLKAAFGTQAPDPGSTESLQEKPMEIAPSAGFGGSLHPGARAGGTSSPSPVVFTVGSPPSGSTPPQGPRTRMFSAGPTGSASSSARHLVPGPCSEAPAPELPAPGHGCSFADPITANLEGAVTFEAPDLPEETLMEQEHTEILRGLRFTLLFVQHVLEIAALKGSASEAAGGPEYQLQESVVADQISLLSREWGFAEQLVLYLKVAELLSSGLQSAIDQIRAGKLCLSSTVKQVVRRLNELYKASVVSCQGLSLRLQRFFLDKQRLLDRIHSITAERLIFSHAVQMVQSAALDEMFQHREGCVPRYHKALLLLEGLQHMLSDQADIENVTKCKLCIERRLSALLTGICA

[31] = molecular target: Vascular endothelial growth factor receptor 1 (Homo sapiens) (UniProt P17948); test: % Activity remaining of VEGFR1 in the Dundee kinase panel at 1.0 µM; conditions: Compound concentration 1.0 uM
[32] = molecular target: Tyrosine-protein kinase Yes (Homo sapiens) (UniProt P07947); test: % Activity remaining of YES1 in the Dundee kinase panel at 1.0 µM; conditions: Compound concentration 1.0 uM
[33] = molecular target: 3-phosphoinositide-dependent protein kinase 1 (Homo sapiens) (UniProt O15530); test: % Activity remaining of PDK1 in the Dundee kinase panel at 1.0 µM; conditions: Compound concentration 1.0 uM

| % Activity remaining [3] | % Activity remaining [4] | % Activity remaining [5] | % Activity remaining [6] | % Activity remaining [7] | % Activity remaining [8] | % Activity remaining [9] | % Activity remaining [11] | % Activity remaining [12] | % Activity remaining [13] | % Activity remaining [14] | % Activity remaining [15] | % Activity remaining [16] | % Activity remaining [17] | % Activity remaining [18] | % Activity remaining [19] | % Activity remaining [20] | % Activity remaining [21] | % Activity remaining [22] | Compound | % Activity remaining [10] | further results |
| --- | --- | --- | --- | --- | --- | --- | --- | --- | --- | --- | --- | --- | --- | --- | --- | --- | --- | --- | --- | --- | --- |
| 90.3% | 92.5% | 86.8% | 103% | 102% | 97.5% | 104% | 98.3% | 105% | 98.8% | 91.5% | 106% | 106% | 103% | 125% | 81.1% | 87.6% | 108% | 98.7% | Cc1ccc(F)c(S(=O)(=O)Nc2ccc(-c3nc(OC[C@H]4CN(CCCCCCOCCOCCOCC(=O)N[C@H](C(=O)N5C[C@H](O)C[C@H]5C(=O)NCc5ccc(-c6scnc6C)cc5)C(C)(C)C)CCO4)c4cn[nH]c4n3)cc2)c1 | 94.2% | Degradation [1]: 0%; Degradation [2]: 0%; % Activity remaining [23]: 97.9%; % Activity remaining [24]: 88.4%; % Activity remaining [25]: 113%; % Activity remaining [26]: 83.2%; % Activity remaining [27]: 52.9%; % Activity remaining [28]: 83.4%; % Activity remaining [29]: 89.4%; % Activity remaining [30]: 116%; % Activity remaining [31]: 120%; % Activity remaining [32]: 108%; % Activity remaining [33]: 99.3% |
| 91.4% | 94.7% | 105% | 105% | 104% | 105% | 95.2% | 105% | 112% | 95.5% | 99.5% | 102% | 111% | 118% | 109% | 113% | 105% | 111% | 101% | Cc1ccc(F)c(S(=O)(=O)Nc2ccc(-c3nc(OC[C@H]4CN(CCCCCCOCCOCCOCC(=O)N[C@H](C(=O)N5C[C@@H](O)C[C@H]5C(=O)NCc5ccc(-c6scnc6C)cc5)C(C)(C)C)CCO4)c4cn[nH]c4n3)cc2)c1 | 86.4% | % Activity remaining [23]: 98.4%; % Activity remaining [24]: 94.2%; % Activity remaining [25]: 119%; % Activity remaining [26]: 90.2%; % Activity remaining [27]: 70.7%; % Activity remaining [28]: 86.8%; % Activity remaining [29]: 99.4%; % Activity remaining [30]: 112%; % Activity remaining [31]: 103%; % Activity remaining [32]: 105%; % Activity remaining [33]: 86.5% |
